Results from US20020025940A1, “Methods and compositions for sensitive and rapid, functional identification of genomic polynucleotides and use for cellular assays in drug discovery” (Aurora Biosciences Corporation, priority 1997, published 2002).

Legend:
Assay type in all cases: cell-based, human
[1] = test system: BLEC Jurkat clones; assay: Specificity of activated BLEC Jurkat clones, relative beta-lactamase activity; details: PMA 8 nM, Thaps 1 microM, CsA 100 nM, PHA 10 microgram/ml
Excerpt: (§1) Isolated clones from PHA-induced (Example 6) and PHA-repressed (Example 7) procedures described above were characterized to determine the specificity of their modulation and time required for induction or repression. Clones were stimulated with multiple activators or inhibitors over a one to twenty-four hour time interval.
(§2) In this study, PMA, which is a PKC activator, Thapsigargin which increases intracellular calcium, PHA which activates the T-cell receptor pathway, and cyclosporin A which is a clinically approved immunosuppressant that inhibits the Ca^2+ dependent phosphates calcineurin were investigated for their ability to modulate beta-lactamase expression in PHA induced and repressed BLEC clones.

[2] = test system: induced BLEC Jurkat clones; assay: Characterization of induced BLEC Jurkat clones, change in 460/530 ratio; details: PHA 10 microgram/ml, Thaps 1 microM, PMA 8 nM, Anti-CD3 2 microgram/ml
Excerpt: These clones represent cells in which the trapping construct had integrated into a gene up regulated by PHA (T-cell) activation. Thus, these cells report the transcriptional activation of a gene upon cellular activation. Individual clones were identified and isolated by FACS using CCF2/AM to detect beta-lactamase activity. This clone isolation method, the induced sorting paradigm, used three sequential and independent stimulation and sorting protocols. […] These control cells were all green.
These isolated clones were expanded and tested for PHA inducibility by microscopic inspection with and without PHA stimulation in the presence of CCF2/AM. A total of fifty-five PHA inducible clones were identified using this procedure. The PHA inducibility for these clones ranged from a 1.5 to 40 fold change in the 460/530 ratio as compared to unstimulated control cells. Genomic Southern analysis using a DNA probe encoding beta-lactamase established that these clones represented 34 independent stable vector integration events. A list of clones obtained by the methods of the present invention and their characteristics is provided below in Table 6 and Table 7.
In addition to PHA inducible clones, Phobol 12-myristate 13-acetate (PMA) (Calbiochem), Thapsigargin (Thaps) (Calbiochem), and PMA+Thaps inducible clones were isolated using the general procedure set forth above using the indicated inducer rather than PHA. PMA is a specific activator of PKC (protein kinase C) and Thaps is a specific activator of intracellular calcium ion release (Thaps). These clones were isolated using three rounds of FACS using the general procedures described for the PHA inducible clones in Example 5. In such instances, other stimulants were substituted for PHA. PMA was provided at 8 nM, Thaps was provided at 1 microM. When these two stimulants were combined, their concentration was not changed. […] By using varied selection conditions, it is possible to isolate functionally distinct clones downstream of the desired signaling target.
Table 7 and Table 8 provide data similar to that provided in Table 5 for all of the clones obtained by the methods of Examples 5 to 7.

[3] = test system: clone C2 (3×NFAT response element linked to beta-lactamase, M1 muscurinic receptor); assay: Relative beta-lactamase activity of control clone C2; details: PMA 8 nM, Thaps 1 microM, CsA 100 nM, PHA 10 microgram/ml
Excerpt: as §1, §2

## C/C=C(/C)C(=O)O[C@H]1C(C)=C2[C@H]([C@@H]1OC(=O)CCCCCCC)[C@@](C)(OC(C)=O)C[C@H](OC(=O)CCC)[C@@]1(O)[C@H]2OC(=O)[C@@]1(C)O [Thaps, Thapsigargin]
[1]; clone J32-6D4
  Relative Beta-Lactamase Activity of the Clone by the Indicated Stimulus After 24 hours (% of maximum activated stimuli): 1-2%
[1]; clone J83 97-PPTR2 (repressed paradigm)
  Relative Beta-Lactamase Activity of the Clone by the Indicated Stimulus After 24 hours (% of maximum activated stimuli): 85%
[1]; clone J83-PI9
  Relative Beta-Lactamase Activity of the Clone by the Indicated Stimulus After 24 hours (% of maximum activated stimuli): 100%
[1]; clone J83-PTI8
  Relative Beta-Lactamase Activity of the Clone by the Indicated Stimulus After 24 hours (% of maximum activated stimuli): 100%
[1]; clone J389-PTI4
  Relative Beta-Lactamase Activity of the Clone by the Indicated Stimulus After 24 hours (% of maximum activated stimuli): 5%
[2]; clone J83PI1
  Change in 460/530 ratio in the indicated clone by the following activator: 3-4
[2]; clone J83PI2
  Change in 460/530 ratio in the indicated clone by the following activator: 1-2
[2]; clone J83PI3
  Change in 460/530 ratio in the indicated clone by the following activator: 6-7
[2]; clone J83PI4
  Change in 460/530 ratio in the indicated clone by the following activator: 3-4
[2]; clone J83PI6
  Change in 460/530 ratio in the indicated clone by the following activator: 7-8
[2]; clone J83PI7
  Change in 460/530 ratio in the indicated clone by the following activator: 2
[2]; clone J83PI8
  Change in 460/530 ratio in the indicated clone by the following activator: 1-2
[2]; clone J83PI9
  Change in 460/530 ratio in the indicated clone by the following activator: 5-6
[2]; clone J83PI13
  Change in 460/530 ratio in the indicated clone by the following activator: 2-3
[2]; clone J83PI14
  Change in 460/530 ratio in the indicated clone by the following activator: 2
[2]; clone J83PI15
  Change in 460/530 ratio in the indicated clone by the following activator: 2
[2]; clone J83PI16
  Change in 460/530 ratio in the indicated clone by the following activator: 1-2
[2]; clone J83PI18
  Change in 460/530 ratio in the indicated clone by the following activator: 7-8
[2]; clone J83PI19
  Change in 460/530 ratio in the indicated clone by the following activator: 1-2
[2]; clone J97PI1
  Change in 460/530 ratio in the indicated clone by the following activator: 3-4
[2]; clone J97PI3
  Change in 460/530 ratio in the indicated clone by the following activator: 1-2
[2]; clone J97PI4
  Change in 460/530 ratio in the indicated clone by the following activator: 1-2
[2]; clone J97PI5
  Change in 460/530 ratio in the indicated clone by the following activator: 1.9
[2]; clone J97PI6
  Change in 460/530 ratio in the indicated clone by the following activator: 4-6
[2]; clone J97PI7
  Change in 460/530 ratio in the indicated clone by the following activator: 4-5
[2]; clone J97PI8
  Change in 460/530 ratio in the indicated clone by the following activator: 3-4
[2]; clone J97PI9
  Change in 460/530 ratio in the indicated clone by the following activator: 4-5
[2]; clone J97PI10
  Change in 460/530 ratio in the indicated clone by the following activator: 3-4
[2]; clone J97PI11
  Change in 460/530 ratio in the indicated clone by the following activator: 5-6
[2]; clone J97PI12
  Change in 460/530 ratio in the indicated clone by the following activator: 5-6
[2]; clone J97PI13
  Change in 460/530 ratio in the indicated clone by the following activator: 5-6
[2]; clone J97PI14
  Change in 460/530 ratio in the indicated clone by the following activator: 3-4
[2]; clone J97PI15
  Change in 460/530 ratio in the indicated clone by the following activator: 3-4
[2]; clone J97PI17
  Change in 460/530 ratio in the indicated clone by the following activator: 7-8
[2]; clone J97PI18
  Change in 460/530 ratio in the indicated clone by the following activator: 3-4
[2]; clone J97PI19
  Change in 460/530 ratio in the indicated clone by the following activator: 2-3
[2]; clone J97PI20
  Change in 460/530 ratio in the indicated clone by the following activator: 2-3
[2]; clone J97PI21
  Change in 460/530 ratio in the indicated clone by the following activator: 2-3
[2]; clone J97PI22
  Change in 460/530 ratio in the indicated clone by the following activator: 5-7
[2]; clone J97PI23
  Change in 460/530 ratio in the indicated clone by the following activator: 4-5
[2]; clone J97PI24
  Change in 460/530 ratio in the indicated clone by the following activator: 3-4
[2]; clone J97PI116
  Change in 460/530 ratio in the indicated clone by the following activator: 3-4
[2]; clone J325B11
  Change in 460/530 ratio in the indicated clone by the following activator: 1-2
[2]; clone J326C9
  Change in 460/530 ratio in the indicated clone by the following activator: 1-2
[2]; clone J326D4
  Change in 460/530 ratio in the indicated clone by the following activator: 0
[2]; clone J389PM2
  Change in 460/530 ratio in the indicated clone by the following activator: 3-4
[2]; clone J389PM3
  Change in 460/530 ratio in the indicated clone by the following activator: 2-3
[2]; clone J389PM5
  Change in 460/530 ratio in the indicated clone by the following activator: 3-4
[2]; clone J389PM7
  Change in 460/530 ratio in the indicated clone by the following activator: 2-3
[2]; clone J389PM8
  Change in 460/530 ratio in the indicated clone by the following activator: 3-4
[2]; clone J389PT4
  Change in 460/530 ratio in the indicated clone by the following activator: 10
[2]; clone J389PTt
  Change in 460/530 ratio in the indicated clone by the following activator: 3-4
[2]; clone J389TI1
  Change in 460/530 ratio in the indicated clone by the following activator: 2-3
[2]; clone J389TI4
  Change in 460/530 ratio in the indicated clone by the following activator: 3-4
[3]
  Relative Beta-Lactamase Activity of the Clone by the Indicated Stimulus After 24 hours (% of maximum activated stimuli): 0%
